Data: paper PMC6309729 (Biochemistry, 2011)

Columns and labels:
Assay type in all cases: biochemical
[1] = molecular target: T1, cpFtsY (Arabidopsis thaliana, UniProt O80842); test: basal GTP binding / GTPase assay; details: 25 °C, pH 7.5, Mg(OAc)2; cpFtsY alone
T1 sequence (O80842 41-366): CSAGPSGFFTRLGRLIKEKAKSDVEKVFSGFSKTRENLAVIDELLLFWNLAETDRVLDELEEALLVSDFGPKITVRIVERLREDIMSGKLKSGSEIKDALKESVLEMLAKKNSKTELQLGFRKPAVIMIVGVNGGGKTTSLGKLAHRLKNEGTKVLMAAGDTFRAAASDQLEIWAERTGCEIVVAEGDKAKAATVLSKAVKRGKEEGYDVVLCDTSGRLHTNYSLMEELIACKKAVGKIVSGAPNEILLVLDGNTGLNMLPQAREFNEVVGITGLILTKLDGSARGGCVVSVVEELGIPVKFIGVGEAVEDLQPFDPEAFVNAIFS

[2] = molecular target: T2, cpSRP54•cpFtsY complex (Arabidopsis thaliana, UniProt O80842+P37107); test: reciprocally stimulated multiple-turnover GTPase assay; details: 25 °C, pH 7.5, 100 μM GTP, 100 nM cpSRP54, varied cpFtsY
T2 sequence (P37107 76-564): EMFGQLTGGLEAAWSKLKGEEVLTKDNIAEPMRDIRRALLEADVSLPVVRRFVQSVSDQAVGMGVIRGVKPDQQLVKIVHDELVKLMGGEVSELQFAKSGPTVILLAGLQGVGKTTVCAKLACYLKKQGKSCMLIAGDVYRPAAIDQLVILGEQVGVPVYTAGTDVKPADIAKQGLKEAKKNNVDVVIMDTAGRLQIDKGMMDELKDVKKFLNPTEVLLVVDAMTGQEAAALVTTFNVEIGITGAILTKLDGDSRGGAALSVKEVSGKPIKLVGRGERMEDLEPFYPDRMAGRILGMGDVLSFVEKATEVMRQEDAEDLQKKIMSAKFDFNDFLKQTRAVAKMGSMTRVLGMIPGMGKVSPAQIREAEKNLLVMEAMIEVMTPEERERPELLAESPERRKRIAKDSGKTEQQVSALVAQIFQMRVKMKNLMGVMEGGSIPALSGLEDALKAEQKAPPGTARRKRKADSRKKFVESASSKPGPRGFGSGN
T2 sequence (O80842 41-366): T1 sequence (O80842 41-366)

[3] = molecular target: T3, cpSRP54 (Arabidopsis thaliana, UniProt P37107); test: basal GTP binding / GTPase assay; details: 25 °C, pH 7.5, Mg(OAc)2; cpSRP54 alone
T3 sequence (P37107 76-564): T2 sequence (P37107 76-564)

## Nc1nc2c(ncn2[C@@H]2O[C@H](COP(=O)(O)OP(=O)(O)OP(=O)(O)O)[C@@H](O)[C@H]2O)c(=O)[nH]1 [GTP]
[1]
  basal GTP binding / GTPase assay: basal GTP binding and hydrolysis activity (Tables S3 and S4 of Supporting Information, respectively)
[2]
  reciprocally stimulated multiple-turnover GTPase assay: reciprocally stimulated GTPase reaction between cpFtsY and cpSRP
[3]
  basal GTP binding / GTPase assay: basal GTP binding and hydrolysis activity (Tables S3 and S4 of Supporting Information, respectively)
